Data as given in patent US9983211B2 (priority 2007, dated 2018).

Settings: in vivo

## N#CC(O)c1ccccc1 (stereo not shown) [mandelonitrile]
  times less toxic than sodium cyanide: approximately 18 times
